{
  "source": "patent US20230285402A1",
  "about": "“Compositions and Methods of Modulating Short-Chain Dehydrogenase Activity” (BOARD OF REGENTS OF THE UNIVERSITY OF TEXAS SYSTEM, priority 2013, published 2023)",
  "key": {"FVB mice": {"test_system": "FVB mice", "experiment": "Liver regeneration after partial hepatectomy, FVB mice, SW033291 5 mg/kg IP bid", "assay_type": "in vivo, mouse"}, "CXCL12": {"test_system": "CXCL12", "experiment": "Gene expression in bone marrow cells of treated mice: CXCL12", "assay_type": "in vivo, mouse", "details": "10 mg/kg IP twice daily, 5 doses", "protocol": "(§1) 2 hours following the last dose bone marrow is harvested and sorted into SKL marked cells that are hematopoietic stem cell enriched and into CD45(−) cells that are bone marrow stroma cells. RNA was extracted and gene expression determined relative to levels in mice injected with vehicle control."}, "SCF": {"test_system": "SCF", "experiment": "Gene expression in bone marrow cells of treated mice: SCF", "assay_type": "in vivo, mouse", "details": "10 mg/kg IP twice daily, 5 doses", "protocol": "as §1"}, "[1]": {"test_system": "cell numbers in a cell culture assay", "experiment": "Toxicity in cell culture assay (decrease of cell numbers)", "assay_type": "cell-based", "details": "concentration needed to decrease cell numbers", "protocol": "(§2) Time to inhibition refers to the time needed to inhibit the generation of NADH by 15-PGDH from the moment with drug is added into the reaction mix. Delta Tm refers to the shift in melting temperature of recombinant 15-PGDH in the presence of drug (with cofactor NADH also present). Concentration of Full Cell Line Reporter Induction refers to the concentration of drug that needs to be added to reporter cell line to achieve maximal induction of the 15-PGDH-luciferase gene fusion reporter cassette, as measured by luciferase assays. Hepatocyte stability refers to the half-life of compound in the presence of hepatocytes in culture. Toxicity refers to the concentration of compound needed to decrease cell numbers in a cell culture assay."}, "mice": {"test_system": "mice", "experiment": "Homing of CFSE labeled donor bone marrow cells in lethally irradiated mice", "assay_type": "in vivo, mouse", "details": "10 mg/kg IP", "protocol": "Drugs are administered following radiation, following the transplant, and again at 8 hours after the transplant."}, "A549 cells [2]": {"test_system": "A549 cells", "experiment": "PGE2 in medium of IL1-beta stimulated A549 cells", "assay_type": "cell-based"}, "Hepatocyte stability": {"experiment": "Hepatocyte stability", "assay_type": "in vitro ADME", "details": "in words", "protocol": "as §2"}, "A549 cells [3]": {"test_system": "A549 cells", "experiment": "Cellular toxicity by CellTiter-Glo", "assay_type": "cell-based", "details": "concentrations of up to 10 μM; 24 hours", "protocol": "FIGS. 38(A-C) show assays of cellular toxicity on A549 cells at 24 hours of 15-PGDH inhibitors as assayed by CellTiter-Glo measurement."}, "C57BL/6J female mice": {"test_system": "C57BL/6J female mice", "experiment": "Survival of mice after whole body irradiation, SW033291 5 mg/kg IP", "assay_type": "in vivo, mouse", "details": "for number of mice surviving: 9 Gy"}, "C57BL/6J mice": {"test_system": "C57BL/6J mice", "experiment": "Bone marrow of C57BL/6J mice treated IP", "assay_type": "in vivo, mouse", "details": "5 mg/kg or 20 mg/kg IP", "from_the_text": "Experimental conditions are noted on the figure."}, "[4]": {"details": "CD45(−) bone marrow stromal cells"}},
  "data": [
    {"smiles": "CCCC[S+]([O-])c1sc2nc(-c3cccs3)cc(-c3ccccc3)c2c1N", "note": "(stereo not shown) [SW033291, 2-(butylsulfinyl)-4-phenyl-6-(thiophen-2-yl)thieno[2,3-b]pyridin-3-amine]", "values": [
      {"measurement": "increase in median S-phase (BrdU positive) cells", "setting": "FVB mice; post-operative day 2", "value": "greater than 2 fold"},
      {"measurement": "greater liver weight than control", "setting": "FVB mice; post-operative day 7, dosing from 1 hour before surgery", "value": "approximately 25%"},
      {"measurement": "induction of CXCL12", "setting": "CXCL12; [4]", "value": "greater than 4 fold"},
      {"measurement": "induction in RNA expression of CXCL12", "setting": "CXCL12; bone marrow SKL cells", "value": 3, "unit": "fold"},
      {"measurement": "induction of SCF", "setting": "SCF; [4]", "value": "greater than 4 fold"},
      {"measurement": "induction in RNA expression of SCF", "setting": "SCF; bone marrow SKL cells", "value": 3, "unit": "fold"},
      {"measurement": "Toxicity", "setting": "[1]", "value": ">10", "unit": "µM"},
      {"measurement": "increase of homed cells in recipient bone marrow", "setting": "mice; FIG. 88", "value": 3, "unit": "fold"},
      {"measurement": "increase of homed cells in recipient bone marrow", "setting": "mice; FIG. 90", "value": 2, "unit": "fold"},
      {"measurement": "increase of homed donor cells in recipient bone marrow", "setting": "mice; FIG. 140", "value": "approximately 2.5 fold"},
      {"measurement": "rank of PGE2 level in medium", "setting": "A549 cells [2]; 100 nM drug", "value": "next highest level of PGE2"},
      {"measurement": "15-PGDH activity in cells as reflected in PGE2 levels", "setting": "A549 cells [2]; IL1-beta 23 hours, compound for last 5 hours", "value": "clear inhibition of 15-PGDH activity"},
      {"measurement": "highest PGE2 level in medium", "setting": "A549 cells [2]; IL-1β 16 h, then compound 8 h", "value": 3000, "unit": "pg/mL"},
      {"measurement": "Hepatocyte stability", "setting": "Hepatocyte stability", "value": "Stable > couple hrs"},
      {"measurement": "effect on CellTitre-Glo levels", "setting": "A549 cells [3]", "value": "No effect"},
      {"measurement": "longer survival on average than vehicle control", "setting": "C57BL/6J female mice; 11Gy, any of the three dosing schedules", "value": "1 to 2", "unit": "days"},
      {"measurement": "longer survival than vehicle control", "setting": "C57BL/6J female mice; 11Gy, daily for 7 doses", "value": 48, "unit": "h"},
      {"measurement": "number of mice surviving", "setting": "C57BL/6J female mice; Day 0, daily for 7 doses", "value": 3},
      {"measurement": "number of mice surviving", "setting": "C57BL/6J female mice; Day 5, daily for 7 doses", "value": 3},
      {"measurement": "number of mice surviving", "setting": "C57BL/6J female mice; Day 6, daily for 7 doses", "value": 3},
      {"measurement": "number of mice surviving", "setting": "C57BL/6J female mice; Day 7, daily for 7 doses", "value": 3},
      {"measurement": "number of mice surviving", "setting": "C57BL/6J female mice; Day 8, daily for 7 doses", "value": 3},
      {"measurement": "number of mice surviving", "setting": "C57BL/6J female mice; Day 9, daily for 7 doses", "value": 3},
      {"measurement": "number of mice surviving", "setting": "C57BL/6J female mice; Day 10, daily for 7 doses", "value": 3},
      {"measurement": "number of mice surviving", "setting": "C57BL/6J female mice; Day 12, daily for 7 doses", "value": 2},
      {"measurement": "number of mice surviving", "setting": "C57BL/6J female mice; Day 13, daily for 7 doses", "value": 2},
      {"measurement": "number of mice surviving", "setting": "C57BL/6J female mice; Day 14, daily for 7 doses", "value": 1},
      {"measurement": "number of mice surviving", "setting": "C57BL/6J female mice; Day 15, daily for 7 doses", "value": 0},
      {"measurement": "appearance of mice", "setting": "C57BL/6J female mice; Day 25, 7 Gy, wrapped cell reads Looks Healthy", "value": "Looks"},
      {"measurement": "increase in numbers of hematopoietic colonies", "setting": "C57BL/6J mice", "value": "approximately 30%"},
      {"measurement": "percent of Sca1+/c-Kit+ cells in lineage negative (SKL) cells", "setting": "C57BL/6J mice", "value": "unchanged"}
    ]}
  ]
}
